Measurements as given in paper PMC10382042, “Brevetoxin versus Brevenal Modulation of Human Nav1 Channels” (Marine Drugs, 2023).
Several values for one entry are separate records, joined by “and”; a condition that tells them apart may be missing. Equal entries are not always repeated. Where two headings read alike, the source gives them in different places.

Legend:
[1] = target: human Nav1.2 (Homo sapiens, UniProt Q99250); test: Automated patch-clamp I-V relationship (voltage dependence of activation, Gmax), Nav1.2; format: cell-based
Experimental: (§1) The voltage dependence of recombinant Nav channel-mediated currents exposed to PbTx-3 and brevenal was evaluated using current–voltage (I-V) relationships built for Ipeak and Ilate elicited by a standard stimulation protocol (25 ms, −100 to +60 mV, Vh −120 mV, 0.1 Hz).
The effects of extracellular exposure to PbTx-3 (PbTx-3o = 1 μM) and brevenal (Brevenalo = 10 μM) on the activation of Nav channels in neuronal and muscle cells were examined under normal intracellular ionic conditions. […] To investigate the possibility of overlapping binding of these compounds within Nav channels, Nav whole-cell currents were recorded using an intracellular solution supplemented with brevenal (Brevenali = 1 μM). After equilibration, extracellular PbTx-3o (1 μM) was applied and its modulatory effects over the current kinetics and voltage dependence of activation were compared.
(§2) Figure 4 and Figure 5 display representative current traces mediated by human recombinant Nav channels in control and upon exposure to PbTx-3 and brevenal. I-V plots from the normalized peak and late (when present) currents amplitudes (Ipeak/Ipeak^max and Ilate/Ipeak^max) were fitted to a Boltzmann function rendering the half-maximal activation potential (V0.5) and normalized macroscopic conductance (Gmax) parameters (see Section 4). The changes in V0.5 (ΔV0.5 = V0.5^Comp − V0.5^Ctr) and relative Gmax (Gmax^Rel = Gmax^Comp/Gmax^Ctr) observed in the presence of PbTx-3 and brevenal and control conditions were then calculated and compared for all assayed conditions.
(§3) Recording solutions: The extracellular solution contained (in mM) 140 NaCl, 5 KCl, 2 CaCl2, 2 MgCl2, 10 glucose, and 10 HEPES (pH 7.4 with NaOH, 298 ± 3 mOsmol/k g). Control intracellular solution (in mM): 60 CsF, 70 CsCl, 10 EGTA, 10 glucose, and 10 HEPES (pH 7.2 with CsOH, 285 ± 3 mOsmol/kg). Intracellular exposure to brevenal (1 μM) was achieved by including it in the control intracellular solution during chip filling.
(§4) Electrophysiology: Automated patch-clamp (APC) recordings were performed in a PatchLiner Octo (Nanion Technologies GmbH, Munich, Germany) equipped with two EPC-10 quadro patch-clamp amplifiers (HEKA Electronik, Lambrecht/Pfalz, Germany). PatchControl HT (Nanion) was used for cell capture, seal formation, and establishment of the whole-cell configuration, whilst voltage was controlled and currents were sampled with PatchMaster (HEKA Electronics). Recordings were performed under the whole-cell configuration using single-hole planar medium resistance NPC-16 chips (Rchip, resistance of ~2.5 MΩ) at room temperature (22–24 °C).
(§5) Peak I–V curves were fitted using:I(V) = (V − Vrev) × Gmax/(1 + exp ((V0.5 − V)/Vslope) where I is the macroscopic current, V is the command potential, Vrev is the reversal potential (mV), Gmax is the maximal conductance, V0.5 is the half-activation potential (mV), and Vslope is the slope factor (mV/e-fold).

[2] = target: human Nav1.7 (Homo sapiens, UniProt Q15858); test: Automated patch-clamp, concentration-response and inactivation fits, Nav1.7 in CHO-K1; format: cell-based
Experimental: Functional modulation of recombinant human voltage-gated sodium (Nav) channels exposed to marine PbTx-3 and brevenal was assessed by automated patch-clamp electrophysiology. Neuronal Nav1.2 (CNS) and Nav1.7 (PNS), in addition to muscle Nav1.4 (skeletal) and Nav1.5 (cardiac) sodium channels, were patch-clamped in mammalian cells. Whole-cell currents mediated by human Nav1.4 and Nav1.7 overexpressed in CHO-K1 cells, as well as human Nav1.2 and Nav1.5 overexpressed in HEK293 cells, were recorded at room temperature. Currents were elicited by 25 ms test pulses to −20 mV from a holding potential (Vh) of −120 mV, delivered for 5 min at 0.1 Hz, after each full-bath solution exchange to allow current amplitude and kinetics to reach a steady state.
Current traces were scaled to maximal Ipeak and are presented as insets in Figure 2 to underline the effects (or lack thereof) of PbTx-3 and brevenal on the current kinetics of the four Nav isoforms studied. Inactivation time constants (τinact) in control and the presence of PbTx-3 and brevenal were estimated by exponential fits (see Methods) to the current decay between 15% and 85% of the depolarizing pulse. Single exponential fits adequately described τinact for the neuronal and the skeletal muscle Nav isoforms, whereas a double exponential fit was required to approximate open channel inactivation of the cardiac Nav current. Consistent with the enhancement of Ilate observed for Nav1.2, Nav1.4, and Nav1.5 in the presence of PbTx-3, significant concentration-dependent increases in the Yinf asymptote were detected (Tables S1–S3). These were mirrored by brevenal exposure in Nav1.2- and Nav1.4-mediated currents. Nevertheless, the estimated τinacts appeared insensitive to PbTx-3 and brevenal modification, with the notable exception of Nav1.4, for which high concentrations of PbTx-3 and brevenal caused a measurable slowing of the open channel inactivation time constant (Table S2).
as §3
HEK293 cells heterologously expressing human Nav1.2 (Scottish Biomedical, a kind gift from the Petrous lab, Florey Institute of Neuroscience and Mental Health, Melbourne, VIC Australia) and Nav1.5 (ChanTest Corp., Cleveland, OH, USA) were cultured in DMEM containing 10% v/v FBS and selection antibiotics to enable stable expression as per the manufacturer’s recommendation. CHOK1 expressing Nav1.4 and Nav1.7 (ChanTest) was cultured in DMEM/F12 containing 10% v/v FBS and selection antibiotics supporting stable expression as recommended by the manufacturer. Cells were maintained in a humidified 5% CO2 incubator at 37 °C, grown in T25 flasks to 70–80% confluence, and passaged every 3–4 days using TrypLE Express (Invitrogen). After harvesting with TrypLE, cells were resuspended to 10^5 cells/mL in cold extracellular solution and allowed to recover for 30 min at 4 °C before recording.
as §4
Cells between passages 6 and 12 were used. […]

[3] = target: human Nav1.4 (Homo sapiens, UniProt P35499); test: Automated patch-clamp I-V relationship (voltage dependence of activation, Gmax), Nav1.4; format: cell-based
Experimental: as §1
[…] […] To investigate the possibility of overlapping binding of these compounds within Nav channels, Nav whole-cell currents were recorded using an intracellular solution supplemented with brevenal (Brevenali = 1 μM). After equilibration, extracellular PbTx-3o (1 μM) was applied and its modulatory effects over the current kinetics and voltage dependence of activation were compared.
as §2, §3, §4, §5

[4] = test system: nodose ganglion neuron Navs; details: cited from earlier work
[5] = extracellular brevenal 10 μM, n = 5

human Nav1.4, sequence (P35499 whole entry): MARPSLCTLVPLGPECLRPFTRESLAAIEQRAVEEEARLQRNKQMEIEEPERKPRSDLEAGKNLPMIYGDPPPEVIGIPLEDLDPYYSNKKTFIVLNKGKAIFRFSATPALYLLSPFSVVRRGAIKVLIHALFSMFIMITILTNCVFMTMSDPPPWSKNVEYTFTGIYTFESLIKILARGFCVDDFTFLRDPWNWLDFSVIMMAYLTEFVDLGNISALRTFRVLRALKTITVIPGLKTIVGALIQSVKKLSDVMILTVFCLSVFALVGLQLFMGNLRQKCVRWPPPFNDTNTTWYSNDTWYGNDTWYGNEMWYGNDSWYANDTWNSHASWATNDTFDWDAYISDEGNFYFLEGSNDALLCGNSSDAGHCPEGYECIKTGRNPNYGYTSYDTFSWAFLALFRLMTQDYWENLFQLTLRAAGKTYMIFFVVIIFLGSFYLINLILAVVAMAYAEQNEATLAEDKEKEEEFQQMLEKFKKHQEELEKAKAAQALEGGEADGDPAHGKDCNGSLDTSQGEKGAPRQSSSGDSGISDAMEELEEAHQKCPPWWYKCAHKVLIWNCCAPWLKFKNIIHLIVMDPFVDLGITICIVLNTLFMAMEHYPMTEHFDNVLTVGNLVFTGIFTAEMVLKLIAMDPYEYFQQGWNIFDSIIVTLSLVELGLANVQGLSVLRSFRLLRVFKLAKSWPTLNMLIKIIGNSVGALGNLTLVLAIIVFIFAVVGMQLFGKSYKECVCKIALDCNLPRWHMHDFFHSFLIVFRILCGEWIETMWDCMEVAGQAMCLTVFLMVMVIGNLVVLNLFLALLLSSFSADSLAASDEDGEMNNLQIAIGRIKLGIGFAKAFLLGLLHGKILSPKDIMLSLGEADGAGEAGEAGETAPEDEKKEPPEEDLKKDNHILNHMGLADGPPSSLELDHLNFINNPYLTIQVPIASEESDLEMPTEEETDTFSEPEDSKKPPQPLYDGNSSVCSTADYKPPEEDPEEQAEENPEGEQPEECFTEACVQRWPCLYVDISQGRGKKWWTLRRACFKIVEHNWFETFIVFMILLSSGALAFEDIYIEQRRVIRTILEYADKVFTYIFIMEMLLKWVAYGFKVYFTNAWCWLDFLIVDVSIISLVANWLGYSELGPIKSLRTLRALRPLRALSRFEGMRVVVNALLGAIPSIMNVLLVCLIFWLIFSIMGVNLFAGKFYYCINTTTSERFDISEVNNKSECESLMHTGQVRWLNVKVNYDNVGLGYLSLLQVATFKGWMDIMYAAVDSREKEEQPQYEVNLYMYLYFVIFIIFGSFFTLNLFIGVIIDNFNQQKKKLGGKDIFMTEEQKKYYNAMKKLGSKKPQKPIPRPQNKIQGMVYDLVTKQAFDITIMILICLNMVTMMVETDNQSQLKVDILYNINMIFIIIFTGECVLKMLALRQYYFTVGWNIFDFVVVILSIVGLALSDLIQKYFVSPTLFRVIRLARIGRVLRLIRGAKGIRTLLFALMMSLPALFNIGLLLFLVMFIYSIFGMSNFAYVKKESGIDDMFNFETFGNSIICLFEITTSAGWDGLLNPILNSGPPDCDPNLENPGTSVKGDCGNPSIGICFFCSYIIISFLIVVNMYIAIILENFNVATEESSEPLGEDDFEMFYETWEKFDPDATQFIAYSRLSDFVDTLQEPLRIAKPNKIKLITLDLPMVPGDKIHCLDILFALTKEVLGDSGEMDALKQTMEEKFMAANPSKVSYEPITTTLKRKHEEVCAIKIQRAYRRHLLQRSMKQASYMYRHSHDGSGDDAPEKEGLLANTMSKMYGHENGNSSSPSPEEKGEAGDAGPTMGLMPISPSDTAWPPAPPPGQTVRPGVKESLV
human Nav1.7, sequence (Q15858 whole entry): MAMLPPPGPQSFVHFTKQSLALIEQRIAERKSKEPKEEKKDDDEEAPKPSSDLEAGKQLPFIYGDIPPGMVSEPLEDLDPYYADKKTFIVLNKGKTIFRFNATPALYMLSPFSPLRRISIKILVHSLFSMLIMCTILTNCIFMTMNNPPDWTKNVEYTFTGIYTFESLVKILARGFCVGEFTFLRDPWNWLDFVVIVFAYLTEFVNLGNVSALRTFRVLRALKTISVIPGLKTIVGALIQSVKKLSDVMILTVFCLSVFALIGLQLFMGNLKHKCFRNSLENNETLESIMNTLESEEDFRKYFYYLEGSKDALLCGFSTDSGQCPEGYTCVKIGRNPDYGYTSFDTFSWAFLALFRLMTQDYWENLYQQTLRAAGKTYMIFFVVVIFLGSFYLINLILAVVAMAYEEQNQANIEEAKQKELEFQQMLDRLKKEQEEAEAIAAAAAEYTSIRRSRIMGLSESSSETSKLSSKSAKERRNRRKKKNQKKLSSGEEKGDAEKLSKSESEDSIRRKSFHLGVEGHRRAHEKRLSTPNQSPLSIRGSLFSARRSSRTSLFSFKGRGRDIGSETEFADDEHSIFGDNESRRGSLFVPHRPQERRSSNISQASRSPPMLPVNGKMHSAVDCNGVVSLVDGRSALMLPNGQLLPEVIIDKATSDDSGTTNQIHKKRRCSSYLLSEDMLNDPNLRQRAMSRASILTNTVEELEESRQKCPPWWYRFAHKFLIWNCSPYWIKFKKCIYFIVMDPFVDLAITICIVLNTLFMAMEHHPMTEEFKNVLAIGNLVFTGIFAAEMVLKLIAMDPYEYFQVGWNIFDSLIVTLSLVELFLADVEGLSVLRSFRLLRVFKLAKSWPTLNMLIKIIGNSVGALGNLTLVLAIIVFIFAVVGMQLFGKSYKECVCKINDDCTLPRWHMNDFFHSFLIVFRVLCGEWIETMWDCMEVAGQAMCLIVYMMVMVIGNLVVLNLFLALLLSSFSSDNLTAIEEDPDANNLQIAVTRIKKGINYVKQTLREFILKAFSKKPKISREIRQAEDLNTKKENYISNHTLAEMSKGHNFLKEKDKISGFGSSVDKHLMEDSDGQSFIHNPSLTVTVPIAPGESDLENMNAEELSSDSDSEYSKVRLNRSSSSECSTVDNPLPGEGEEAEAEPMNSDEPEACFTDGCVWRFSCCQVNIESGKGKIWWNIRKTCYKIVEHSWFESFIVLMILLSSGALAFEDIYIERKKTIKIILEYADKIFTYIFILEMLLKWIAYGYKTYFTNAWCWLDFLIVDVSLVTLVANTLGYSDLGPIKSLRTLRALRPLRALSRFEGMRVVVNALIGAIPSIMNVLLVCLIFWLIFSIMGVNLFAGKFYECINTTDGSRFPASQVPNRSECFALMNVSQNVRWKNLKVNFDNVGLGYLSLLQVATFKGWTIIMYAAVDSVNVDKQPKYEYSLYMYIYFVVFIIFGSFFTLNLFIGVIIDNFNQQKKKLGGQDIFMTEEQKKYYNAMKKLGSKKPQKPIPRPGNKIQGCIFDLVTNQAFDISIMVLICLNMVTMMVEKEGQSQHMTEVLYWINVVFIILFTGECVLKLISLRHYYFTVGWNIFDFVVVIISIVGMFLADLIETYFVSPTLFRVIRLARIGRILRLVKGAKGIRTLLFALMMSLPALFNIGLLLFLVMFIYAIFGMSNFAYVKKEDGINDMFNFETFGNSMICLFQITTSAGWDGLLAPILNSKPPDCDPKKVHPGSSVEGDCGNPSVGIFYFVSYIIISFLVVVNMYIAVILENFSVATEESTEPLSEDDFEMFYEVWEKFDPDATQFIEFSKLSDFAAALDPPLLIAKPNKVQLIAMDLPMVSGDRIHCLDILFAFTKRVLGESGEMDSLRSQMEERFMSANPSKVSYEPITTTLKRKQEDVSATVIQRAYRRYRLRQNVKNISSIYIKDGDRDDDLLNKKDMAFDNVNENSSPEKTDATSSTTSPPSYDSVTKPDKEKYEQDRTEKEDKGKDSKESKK

Compound: C=C/C=C\CC[C@H]1O[C@H]2CC[C@@]3(C)O[C@H]4[C@@H](O)C[C@@]5(C)O[C@@H](CC/C=C(C)/C(C)=C/C=O)[C@@H](C)C[C@H]5O[C@@H]4C[C@@H]3O[C@@H]2CC[C@@]1(C)O [Brevenal]
- Nav1.2 V0.5 ([1]; Ctro:Brevenali, intracellular brevenal 1 μM, n = 4, control −22.6 ± 1.9 mV): −43.9 ± 2.3 mV
- decrease in Nav1.2 Gmax ([1]; extracellular brevenal 10 μM): ~ 40%
- Gmax^Rel of Nav1.2 [1, 5]: 0.6 ± 0.1
- ΔV0.5 of Nav1.2 activation (depolarizing shift) [1, 5]: 6.1 ± 1.0 mV
- leftward shift in Nav1.2 V0.5 vs control intracellular ([1]; intracellular dialysis with brevenal 1 μM): ~ 20 mV
- Nav1.7 yinf ([2]; 10^-5 M, n = 4): 0.07±0.01
- Nav1.7 τ inact ([2]; 10^-5 M, n = 4): 0.93 ± 0.09 ms
- Nav1.7 yinf ([2]; 10^-6 M, n = 4): 0.07±0.01
- Nav1.7 τ inact ([2]; 10^-6 M, n = 4): 0.85 ± 0.06 ms
- Nav1.7 yinf ([2]; 10^-9 M, n = 4): 0.07±0.01
- Nav1.7 τ inact ([2]; 10^-9 M, n = 4): 0.76 ± 0.05 ms
- modulation of Nav1.7 currents ([2]; up to 30 μM): did not modulate
- inhibition of Nav1.4 Gmax ([3]; Brevenalo 1 μM): ~ 70%
- Gmax^Rel of Nav1.4 ([3]; Brevenalo 1 μM, n = 7): 0.3 ± 0.02
- depolarizing shift in V0.5 of Nav1.4 ([3]; Brevenalo 1 μM, n = 7): 4.9 ± 1.1 mV
- Nav1.4 V0.5 ([3]; Ctro:Brevenali, n = 4, control −31.8 ± 0.5 mV): −26.4 ± 2.8 mV
- right shift of Nav1.4 activation vs control intracellular ([3]; brevenal 1 μM in the intracellular solution): ~ 5 mV

Compound: C=C(CO)C[C@@H]1C[C@H](O)[C@]2(C)OC3CC4OC5C[C@]6(C)O[C@]7(C)CCC8OC9C[C@]%10(C)OC%11C(C)=CC(=O)OC%11CC%10OC9C[C@@H](C)C8OC7CC6O[C@@]5(C)C/C=C\C4OC3CC2O1 (stereo partly drawn) [PbTx-3, Brevetoxin PbTx-3]
- Gmax^Rel of Nav1.2 [1]: 0.9 ± 0.1
- Nav1.2 Ilate as % of Ipeak [1]: ~ 40%
- ΔV0.5 of Nav1.2 activation [1]: 1.5 ± 1.0 mV
- fold increase in the mean apparent single-channel open time [4]: ~ 2 fold
- lower conductance (sub-conductance) levels of PbTx-3-modified nodose Navs [4]: 10.7 pS and 21.2 pS
- Nav1.7 Ilate FC^Max (maximal fold change) [2]: 0.6 ± 0.1
- Nav1.7 Ipeak FC^Max (maximal fold change) [2]: 0.4 ± 0.1
- Nav1.7 yinf [2]: 0.04±0.01
- Nav1.7 τ inact [2]: 0.60 ± 0.05 ms and 0.63 ± 0.04 ms and 0.66 ± 0.11 ms
- IC50 ([2]; read-out: IC50, inhibition of Nav1.7 Ilate): 34 nM
- EC50 ([2]; read-out: Nav1.7 Ipeak EC50): 0.16 nM
- Gmax^Rel of Nav1.4 [3]: 0.3 ± 0.05 and 0.4 ± 0.1
- hyperpolarizing shift in V0.5 of Nav1.4 [3]: 9.2 ± 1.5 mV
- inhibition of Nav1.4 Gmax [3]: ~ 70%
- inhibition of Nav1.4 Ipeak [3]: completely inhibited
- ΔV0.5 of Nav1.4 activation [3]: 3.1 ± 2.6 mV
